Test results taken from BindingDB's records for patent US20250313563 (The Broad Institute, 2025).
Values joined by “and” are separate entries in the source; they are usually repeats but may differ in a detail not shown here. Identical values can stand only once.

Experiments:
[1] = target: Glycogen synthase kinase-3 alpha (Homo sapiens, UniProt P49840); assay: TR-FRET Assay
Summary of the method: (§1)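 Signal is measured as TR-FRET between a terbium anti-phospho-Ser641 antibody and streptavidin-d2, added after an EDTA quench. Compounds are preincubated 30 min in assay buffer.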

[2] = target: Glycogen synthase kinase-3 beta (Homo sapiens, UniProt P49841); assay: TR-FRET Assay
Summary of the method: as §1

Glycogen synthase kinase-3 alpha, sequence (P49840 whole entry): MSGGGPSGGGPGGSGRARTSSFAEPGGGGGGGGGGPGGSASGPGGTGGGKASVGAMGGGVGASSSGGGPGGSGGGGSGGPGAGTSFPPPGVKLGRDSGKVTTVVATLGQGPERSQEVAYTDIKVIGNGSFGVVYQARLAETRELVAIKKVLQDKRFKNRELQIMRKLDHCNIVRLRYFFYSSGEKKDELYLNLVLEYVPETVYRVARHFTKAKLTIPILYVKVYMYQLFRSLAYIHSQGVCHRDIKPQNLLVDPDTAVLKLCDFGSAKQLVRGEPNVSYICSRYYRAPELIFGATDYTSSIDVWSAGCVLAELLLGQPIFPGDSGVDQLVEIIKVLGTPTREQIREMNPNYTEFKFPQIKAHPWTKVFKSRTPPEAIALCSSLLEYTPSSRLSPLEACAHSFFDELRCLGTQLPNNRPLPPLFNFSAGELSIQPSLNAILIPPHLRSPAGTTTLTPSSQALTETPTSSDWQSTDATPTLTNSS
Glycogen synthase kinase-3 beta, sequence (P49841 whole entry): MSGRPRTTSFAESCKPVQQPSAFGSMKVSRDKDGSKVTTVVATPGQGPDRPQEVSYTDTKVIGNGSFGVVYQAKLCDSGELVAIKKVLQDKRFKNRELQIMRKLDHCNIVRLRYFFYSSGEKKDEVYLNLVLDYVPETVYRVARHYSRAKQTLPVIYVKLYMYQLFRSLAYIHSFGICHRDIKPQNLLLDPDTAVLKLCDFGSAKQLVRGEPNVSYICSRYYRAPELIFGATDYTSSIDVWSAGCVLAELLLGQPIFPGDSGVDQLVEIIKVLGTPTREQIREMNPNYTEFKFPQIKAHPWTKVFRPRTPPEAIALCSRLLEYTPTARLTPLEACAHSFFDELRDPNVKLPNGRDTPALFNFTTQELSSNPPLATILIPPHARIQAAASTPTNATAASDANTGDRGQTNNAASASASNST

Row | Structure (SMILES) | IC50 [1] | IC50 [2]
1 | CC[C@@]1(c2cccc(S(C)(=O)=O)c2)C2=CN=NC2NC2=C1C(=O)NC(C)(C)C2 (some centres not stated) [US20250313563, Compound 945604] | < 100 nM | < 100 nM
2 | CC[C@@]1(c2cccc(-c3cncn3C)c2)C2=CN=NC2NC2=C1C(=O)CC(C)(C)C2 (some centres not stated) [US20250313563, Compound 945605] | < 100 nM | < 100 nM
3 | CC[C@@]1(c2cccc(-c3ccnc4c3CCC4)c2)C2=CN=NC2NC2=C1C(=O)CC(C)(C)C2 (some centres not stated) [US20250313563, Compound 945606] | 100 to 1000 nM | 100 to 1000 nM and 1000 to 5000 nM
4 | CC[C@@]1(c2cccc(-c3cnc4n3CCCC4)c2)C2=CN=NC2NC2=C1C(=O)CC(C)(C)C2 (some centres not stated) [US20250313563, Compound 945607] | < 100 nM and 1000 to 5000 nM | 100 to 1000 nM and > 5000 nM
5 | CC[C@@]1(c2cccc(-c3cnn(C)c3C)c2)C2=CN=NC2NC2=C1C(=O)NC(C)(C)C2 (some centres not stated) [US20250313563, Compound 945608] | < 100 nM | 100 to 1000 nM
6 | CC[C@@]1(c2cccc(N(C)c3cc(C)ccn3)c2)C2=CN=NC2NC2=C1C(=O)CC(C)(C)C2 (some centres not stated) [US20250313563, Compound 945609] | < 100 nM | 100 to 1000 nM
7 | CC[C@@]1(c2cccc(N(C)c3cc(C)cc(C)n3)c2)C2=CN=NC2NC2=C1C(=O)CC(C)(C)C2 (some centres not stated) [US20250313563, Compound 945610] | < 100 nM | 100 to 1000 nM
8 | CC[C@]1(c2cccc(-c3cnn(C)c3)c2)C2=C(CC(C)(C)NC2=O)NC2N=NC(C)=C21 (some centres not stated) [US20250313563, Compound 945611] | > 5000 nM | > 5000 nM
9 | CC[C@@]1(c2cccc(-c3cnc(C)n3C)c2)C2=CN=NC2NC2=C1C(=O)CC(C)(C)C2 (some centres not stated) [US20250313563, Compound 945612] | 1000 to 5000 nM | > 5000 nM
10 | CC[C@]1(c2cccc(-c3cnc(C)n3C)c2)C2=CN=NC2NC2=C1C(=O)CC(C)(C)C2 (some centres not stated) [US20250313563, Compound 945613] | < 100 nM and 100 to 1000 nM | < 100 nM and 1000 to 5000 nM
11 | CC[C@@]1(c2cccc(-c3cnn(C)c3)c2)C2=C(CC(C)(C)NC2=O)NC2N=NC(C)=C21 (some centres not stated) [US20250313563, Compound 945614] | 100 to 1000 nM | 100 to 1000 nM and 1000 to 5000 nM
12 | CC[C@]1(c2cccc(CN(C)c3cc(C)cc(C)n3)c2)C2=CN=NC2NC2=C1C(=O)CC(C)(C)C2 (some centres not stated) [US20250313563, Compound 945615] | > 5000 nM | > 5000 nM
13 | CC[C@]1(c2cccc(N(C)c3cc(C)ccn3)c2)C2=CN=NC2NC2=C1C(=O)CC(C)(C)C2 (some centres not stated) [US20250313563, Compound 945616] | > 5000 nM | > 5000 nM
14 | CC[C@]1(c2cccc(-c3cnn(C)c3C)c2)C2=CN=NC2NC2=C1C(=O)NC(C)(C)C2 (some centres not stated) [US20250313563, Compound 945617] | 1000 to 5000 nM | > 5000 nM
15 | CC[C@]1(c2cccc(-c3cnc4n3CCCC4)c2)C2=CN=NC2NC2=C1C(=O)CC(C)(C)C2 (some centres not stated) [US20250313563, Compound 945618] | 1000 to 5000 nM | > 5000 nM
16 | CC[C@]1(c2cccc(-c3ccnc4c3CCC4)c2)C2=CN=NC2NC2=C1C(=O)CC(C)(C)C2 (some centres not stated) [US20250313563, Compound 945619] | 1000 to 5000 nM | > 5000 nM
17 | CC[C@]1(c2cccc(-c3cncn3C)c2)C2=CN=NC2NC2=C1C(=O)CC(C)(C)C2 (some centres not stated) [US20250313563, Compound 945620] | 100 to 1000 nM | 1000 to 5000 nM
18 | CC[C@]1(c2cccc(S(C)(=O)=O)c2)C2=CN=NC2NC2=C1C(=O)NC(C)(C)C2 (some centres not stated) [US20250313563, Compound 945621] | 1000 to 5000 nM | > 5000 nM
19 | CC[C@]1(c2cccc(C(F)(F)F)c2)C2=CN=NC2NC2=C1C(=O)N(C(C)(C)C)CC2 (some centres not stated) [US20250313563, Compound 945633] | > 5000 nM | > 5000 nM
20 | CC[C@@]1(c2cccc(C(F)(F)F)c2)C2=CN=NC2NC2=C1C(=O)N(C(C)(C)C)CC2 (some centres not stated) [US20250313563, Compound 945634] | 1000 to 5000 nM | > 5000 nM
21 | CCC1(c2cccc(C(F)(F)F)c2)C2=CN=NC2NC2=C1C(=O)NC(C(C)(C)C)C2 (configuration not stated) [US20250313563, Compound 945635] | < 100 nM | 100 to 1000 nM
22 | CCC1(c2cccc(C(F)(F)F)c2)C2=CN=NC2NC2=C1C(=O)N(c1cccnc1)CC2 (configuration not stated) [US20250313563, Compound 945637] | < 100 nM | 100 to 1000 nM
23 | CC1(C)CC(=O)C2=C(C1)NC1=C(CN=N1)C21CCN(S(=O)(=O)c2ccccc2Cl)CC1 [US20250313563, Compound 945655] | < 100 nM | < 100 nM
24 | COc1cccc(S(=O)(=O)N2CCC3(CC2)C2=C(N=NC2)NC2=C3C(=O)CC(C)(C)C2)c1F [US20250313563, Compound 945656] | < 100 nM | < 100 nM and 100 to 1000 nM
25 | CC1(C)CC(=O)C2=C(C1)NC1=C(CN=N1)C21CCN(S(=O)(=O)c2ccccc2C(F)F)CC1 [US20250313563, Compound 945657] | < 100 nM and 100 to 1000 nM | 100 to 1000 nM and 1000 to 5000 nM
26 | Cc1cnn(C)c1S(=O)(=O)N1CCC2(CC1)C1=C(N=NC1)NC1=C2C(=O)CC(C)(C)C1 [US20250313563, Compound 945658] | 100 to 1000 nM | 1000 to 5000 nM

Row | Structure (SMILES) | IC50 [1] | IC50 [2]
27 | CN(C)C(=O)c1ccc(S(=O)(=O)N2CCC3(CC2)C2=C(N=NC2)NC2=C3C(=O)CC(C)(C)C2)cc1 [US20250313563, Compound 945659] | < 100 nM | < 100 nM
28 | CC1(C)CC(=O)C2=C(C1)NC1=C(CN=N1)C21CCN(S(=O)(=O)c2ccc(Cl)c(Cl)c2)CC1 [US20250313563, Compound 945660] | < 100 nM | < 100 nM
29 | CC1(C)CC(=O)C2=C(C1)NC1=C(CN=N1)C21CCN(S(=O)(=O)c2ccc(Cl)cc2)CC1 [US20250313563, Compound 945661] | < 100 nM | < 100 nM
30 | COc1ccc(S(=O)(=O)N2CCC3(CC2)C2=C(N=NC2)NC2=C3C(=O)CC(C)(C)C2)c(C)c1C [US20250313563, Compound 945662] | < 100 nM | 100 to 1000 nM
31 | CC(C)c1nc(S(=O)(=O)N2CCC3(CC2)C2=C(N=NC2)NC2=C3C(=O)CC(C)(C)C2)cn1C [US20250313563, Compound 945663] | < 100 nM | < 100 nM
32 | CCn1nccc1S(=O)(=O)N1CCC2(CC1)C1=C(N=NC1)NC1=C2C(=O)CC(C)(C)C1 [US20250313563, Compound 945664] | < 100 nM | < 100 nM
33 | COc1ccc(F)c(S(=O)(=O)N2CCC3(CC2)C2=C(N=NC2)NC2=C3C(=O)CC(C)(C)C2)c1 [US20250313563, Compound 945665] | < 100 nM | < 100 nM
34 | COc1ccc(S(=O)(=O)N2CCC3(CC2)C2=C(N=NC2)NC2=C3C(=O)CC(C)(C)C2)cn1 [US20250313563, Compound 945666] | < 100 nM | < 100 nM
35 | CC1(C)CC(=O)C2=C(C1)NC1=C(CN=N1)C21CCN(S(=O)(=O)c2ccccc2C(F)(F)F)CC1 [US20250313563, Compound 945667] | < 100 nM | 100 to 1000 nM
36 | CC1(C)CC(=O)C2=C(C1)NC1=C(CN=N1)C21CCN(S(=O)(=O)c2ccccc2OC(F)F)CC1 [US20250313563, Compound 945668] | < 100 nM | < 100 nM and 100 to 1000 nM
37 | COc1cc(S(=O)(=O)N2CCC3(CC2)C2=C(N=NC2)NC2=C3C(=O)CC(C)(C)C2)ccc1Cl [US20250313563, Compound 945669] | < 100 nM | < 100 nM
38 | CCOc1ccc(S(=O)(=O)N2CCC3(CC2)C2=C(N=NC2)NC2=C3C(=O)CC(C)(C)C2)cc1 [US20250313563, Compound 945670] | < 100 nM and 100 to 1000 nM | < 100 nM and 1000 to 5000 nM
39 | CCn1ccc(S(=O)(=O)N2CCC3(CC2)C2=C(N=NC2)NC2=C3C(=O)CC(C)(C)C2)n1 [US20250313563, Compound 945671] | < 100 nM | < 100 nM
40 | Cc1ccc(S(=O)(=O)N2CCC3(CC2)C2=C(N=NC2)NC2=C3C(=O)CC(C)(C)C2)s1 [US20250313563, Compound 945672] | < 100 nM and 100 to 1000 nM | < 100 nM and 100 to 1000 nM
41 | CC(C)Oc1ccc(S(=O)(=O)N2CCC3(CC2)C2=C(N=NC2)NC2=C3C(=O)CC(C)(C)C2)cc1 [US20250313563, Compound 945673] | < 100 nM | < 100 nM
42 | Cc1cc(S(=O)(=O)N2CCC3(CC2)C2=C(N=NC2)NC2=C3C(=O)CC(C)(C)C2)c(C)s1 [US20250313563, Compound 945674] | < 100 nM | 100 to 1000 nM
43 | CC(C)Oc1ccc(S(=O)(=O)N2CCC3(CC2)C2=C(N=NC2)NC2=C3C(=O)CC(C)(C)C2)cn1 [US20250313563, Compound 945676] | < 100 nM | < 100 nM
44 | CC1(C)CC(=O)C2=C(C1)NC1=C(CN=N1)C21CCN(S(=O)(=O)c2cnn(C(C)(C)C)c2)CC1 [US20250313563, Compound 945677] | < 100 nM | 100 to 1000 nM
45 | Cc1cc(S(=O)(=O)N2CCC3(CC2)C2=C(N=NC2)NC2=C3C(=O)CC(C)(C)C2)ccc1OC(C)C [US20250313563, Compound 945678] | < 100 nM | 100 to 1000 nM
46 | CCn1nc(C)c(S(=O)(=O)N2CCC3(CC2)C2=C(N=NC2)NC2=C3C(=O)CC(C)(C)C2)c1C [US20250313563, Compound 945679] | 100 to 1000 nM | 1000 to 5000 nM
47 | COc1ccc(S(=O)(=O)N2CCC3(CC2)C2=C(N=NC2)NC2=C3C(=O)CC(C)(C)C2)cc1C [US20250313563, Compound 945680] | < 100 nM | < 100 nM
48 | CCC1(c2cccc(-c3c(C)cncc3C)c2)C2=CN=NC2NC2=C1C(=O)CC(C)(C)C2 (configuration not stated) [US20250313563, Compound 945703] | < 100 nM | < 100 nM
49 | CCC1(c2cccc(-c3c(F)cncc3OC)c2)C2=CN=NC2NC2=C1C(=O)CC(C)(C)C2 (configuration not stated) [US20250313563, Compound 945704] | < 100 nM | < 100 nM and 100 to 1000 nM
50 | CC[C@@]1(c2cccc(C(F)F)c2)C2=C(CC(C)(C)CC2=O)NC2N=NC(C(F)(F)F)=C21 (some centres not stated) [US20250313563, Compound 945708] | < 100 nM | 100 to 1000 nM
51 | Cn1ccc(S(=O)(=O)N2CC[C@]3(C2)C2=C(N=NC2)NC2=C3C(=O)CC(C)(C)C2)n1 [US20250313563, Compound 945714] | < 100 nM | < 100 nM
